The data set can be described thus: Release of docetaxel from the polymer matrix of the device. In kind it is physicochemical. Conditions: Docetaxel incorporated in the polymer matrix in the form of powder. The text has this:
The selected active ingredient may be appropriately incorporated into the polymer matrix in a form suitable for obtaining a prolonged release of the main active ingredient itself, without affecting the pharmacological activity thereof. For example, the Docetaxel incorporated in the polymer matrix in the form of powder is released up to 60 days after implantation. Longer release times may be easily achieved by incorporating the active ingredient, instead of in the form of powder, in its co-crystalline form. This solid form reduces the rate of dissolution, which is a necessary prerequisite for subsequent diffusion into the space surrounding the implanted device, […].
To study the release profile, the μMESH device and the FLAT counterpart thereof were incubated in 1 ml of phosphate buffered saline (PBS), to mimic and maximize the volume of liquid to which the devices may be exposed in a local application. At different times, the solution was centrifuged at 5000 rpm for 10 min and the supernatant was analyzed using the protocol described above. The results are expressed as a percentage of the cumulative release over time of three samples for each type of device.

Here are results for one molecule from US20210161807A1, “IMPLANTABLE DEVICE FOR LOCALIZED DRUG DELIVERY, USES AND MANUFACTURING METHOD THEREOF” (FONDAZIONE ISTITUTO ITALIANO DI TECNOLOGIA, priority 2018, published 2021).

For `CC(=O)O[C@@]12CO[C@@H]1C[C@H](O)[C@@]1(C)C(=O)[C@H](O)C3=C(C)[C@@H](OC(=O)[C@H](O)[C@@H](NC(=O)OC(C)(C)C)c4ccccc4)C[C@@](O)([C@@H](OC(=O)c4ccccc4)[C@H]21)C3(C)C` [Docetaxel], the “release time of active ingredient after implantation” value is reported as “up to 60 days”.
